Laboratory results published in the supplement of paper PMC10627819.

Columns and labels:
[1] = test system: S. aureus Newman; assay: fitness (endpoint OD595 vs no drug) (fraction); higher = more growth
In short: (§1)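 Fitness is computed from the optical density at which cultures reach stationary phase, divided by the robust mean of no-drug control wells. Any value above 1 is set to 1. Cultures started at OD595 0.01 in 384-well plates with TSB, LB Lennox or CY at 37 °C, and OD595 was read every 30 min for 14 h against a first-reading background.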

[2] = test system: B. subtilis 168; assay: as above
In short: as §1

[3] = test system: S. pneumoniae D39V; assay: as above
In short: as §1

[4] = test system: S. aureus Newman; assay: Bliss interaction score (quartile over a dose matrix) (fitness difference); higher = more antagonism (negative = synergy)
In short: (§2)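 Growth was read as OD595 when cultures entered stationary phase, and each value was divided by the plate's robust no-drug mean and capped at 1. This normalised ratio is the fitness value, and fitness for each single drug came from the combination data. The Bliss score subtracts the expected fitness, taken as the product, from the observed fitness and is given as quartiles across technical, biological and donor/recipient replicates.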

[5] = test system: S. aureus DSM 20231; assay: as above
In short: as §2

[6] = test system: B. subtilis 168; assay: as above
In short: as §2

[7] = test system: S. pneumoniae D39V; assay: as above
In short: as §2
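Throughout, for Bliss interaction score (quartile over a dose matrix): first quartile when negative (synergy) and third quartile when positive (antagonism).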
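Throughout, for fitness (endpoint OD595 vs no drug): OD595 on entry to stationary phase over no-drug wells; at most 1.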

O=C(O)c1cn(C2CC2)c2cc(N3CCNCC3)c(F)cc2c1=O [Ciprofloxacin] + C[n+]1ccc(-c2cc[n+](C)cc2)cc1 [Paraquat]
Details	fitness
[1], first compound 0.0375 µg/mL, partner 1.25 µg/mL	0.662
[1], first compound 0.0375 µg/mL, partner 2.5 µg/mL	0.639
[1], first compound 0.0375 µg/mL, partner 5 µg/mL	0.642
[1], first compound 0.075 µg/mL, partner 1.25 µg/mL	0.674
[1], first compound 0.075 µg/mL, partner 2.5 µg/mL	0.635
[1], first compound 0.075 µg/mL, partner 5 µg/mL	0.663
[1], first compound 0.15 µg/mL, partner 1.25 µg/mL	0.033
[1], first compound 0.15 µg/mL, partner 2.5 µg/mL	0.0399
[1], first compound 0.15 µg/mL, partner 5 µg/mL	0.0549
[2], first compound 0.0098 µg/mL, partner 1.25 µg/mL	0.895
[2], first compound 0.0098 µg/mL, partner 2.5 µg/mL	0.922
[2], first compound 0.0098 µg/mL, partner 5 µg/mL	0.788
[2], first compound 0.0195 µg/mL, partner 1.25 µg/mL	0.753
[2], first compound 0.0195 µg/mL, partner 2.5 µg/mL	0.657
[2], first compound 0.0195 µg/mL, partner 5 µg/mL	0.687
[2], first compound 0.039 µg/mL, partner 1.25 µg/mL	0.171
[2], first compound 0.039 µg/mL, partner 2.5 µg/mL	0.171
[2], first compound 0.039 µg/mL, partner 5 µg/mL	0.234
[3], first compound 0.125 µg/mL, partner 1.5 µg/mL	0.983
[3], first compound 0.125 µg/mL, partner 3 µg/mL	0.974
[3], first compound 0.125 µg/mL, partner 6 µg/mL	0.97
[3], first compound 0.25 µg/mL, partner 1.5 µg/mL	0.942
[3], first compound 0.25 µg/mL, partner 3 µg/mL	0.913
[3], first compound 0.25 µg/mL, partner 6 µg/mL	0.902
[3], first compound 0.5 µg/mL, partner 1.5 µg/mL	0.877
[3], first compound 0.5 µg/mL, partner 3 µg/mL	0.875

Details	Bliss interaction score
[4]	-0.0507
[5]	-0.0499
[6]	-0.0477
[7]	0.0853

O=C(O)c1cn(C2CC2)c2cc(N3CCNCC3)c(F)cc2c1=O [Ciprofloxacin] + COc1c(N2C[C@@H]3CCCN[C@@H]3C2)c(F)cc2c(=O)c(C(=O)O)cn(C3CC3)c12 [Moxifloxacin]
Details	fitness
[1], first compound 0.0375 µg/mL, partner 0.0075 µg/mL	0.579
[1], first compound 0.0375 µg/mL, partner 0.015 µg/mL	0.414
[1], first compound 0.0375 µg/mL, partner 0.03 µg/mL	0.0123
[1], first compound 0.075 µg/mL, partner 0.0075 µg/mL	0.322
[1], first compound 0.075 µg/mL, partner 0.015 µg/mL	0.0421
[1], first compound 0.075 µg/mL, partner 0.03 µg/mL	0.0176
[1], first compound 0.15 µg/mL, partner 0.0075 µg/mL	0.0344
[1], first compound 0.15 µg/mL, partner 0.015 µg/mL	0.03
[1], first compound 0.15 µg/mL, partner 0.03 µg/mL	0.0119
[2], first compound 0.0098 µg/mL, partner 0.0625 µg/mL	0.051
[2], first compound 0.0098 µg/mL, partner 0.125 µg/mL	0.055
[2], first compound 0.0098 µg/mL, partner 2 µg/mL	0.0402
[2], first compound 0.0098 µg/mL, partner 4 µg/mL	0.0314
[2], first compound 0.0098 µg/mL, partner 8 µg/mL	0.0305
[2], first compound 0.0195 µg/mL, partner 0.0312 µg/mL	0.0426
[2], first compound 0.0195 µg/mL, partner 0.0625 µg/mL	0.0567
[2], first compound 0.0195 µg/mL, partner 0.125 µg/mL	0.0402
[2], first compound 0.0195 µg/mL, partner 2 µg/mL	0.0358
[2], first compound 0.0195 µg/mL, partner 4 µg/mL	0.027
[2], first compound 0.0195 µg/mL, partner 8 µg/mL	0.0243
[2], first compound 0.039 µg/mL, partner 0.0312 µg/mL	0.0379
[2], first compound 0.039 µg/mL, partner 0.0625 µg/mL	0.0522
[2], first compound 0.039 µg/mL, partner 0.125 µg/mL	0.0269
[2], first compound 0.039 µg/mL, partner 2 µg/mL	0.038
[2], first compound 0.039 µg/mL, partner 4 µg/mL	0.0353
[2], first compound 0.039 µg/mL, partner 8 µg/mL	0.0328
[3], first compound 0.125 µg/mL, partner 0.005 µg/mL	0.944
[3], first compound 0.125 µg/mL, partner 0.01 µg/mL	0.944
[3], first compound 0.125 µg/mL, partner 0.02 µg/mL	0.882
[3], first compound 0.125 µg/mL, partner 0.0312 µg/mL	0.0716
[3], first compound 0.125 µg/mL, partner 0.0625 µg/mL	0.0294
[3], first compound 0.125 µg/mL, partner 0.125 µg/mL	0.0127
[3], first compound 0.25 µg/mL, partner 0.005 µg/mL	0.887
[3], first compound 0.25 µg/mL, partner 0.01 µg/mL	0.892
[3], first compound 0.25 µg/mL, partner 0.02 µg/mL	0.812
[3], first compound 0.5 µg/mL, partner 0.005 µg/mL	0.686
[3], first compound 0.5 µg/mL, partner 0.01 µg/mL	0.692
[3], first compound 0.5 µg/mL, partner 0.02 µg/mL	0.628
[3], first compound 0.5 µg/mL, partner 0.0312 µg/mL	0.0441
[3], first compound 0.5 µg/mL, partner 0.0625 µg/mL	0.0537
[3], first compound 0.5 µg/mL, partner 0.125 µg/mL	0.0249

[3], first compound 0.25 µg/mL, one replicate
Details	fitness
partner 0.0312 µg/mL	0.0113
partner 0.0625 µg/mL	0.0007
partner 0.125 µg/mL	0

Details	Bliss interaction score
[4]	-0.2
[5]	-0.117
[6]	0.026
[7]	-0.0855
